Results: US12030896B2, “PIKfyve inhibitors” (Mayo Foundation for Medical Education and Research, priority 2018, dated 2024)
Where two headings read alike, the source gives them in different places.

Test: Pharmacokinetic study of Example 3 in mouse (IV, IP)
Format: in vivo, C57 Mouse
Conditions: for concentration at 0.5 h: 0.50 h; for AUC(0-inf): read-out: AUCINF_pred; for Cmax: read-out: Cmax; for Tmax: read-out: Tmax
Protocol: Species: C57 Mouse. Dose Route: IV&IP. Formulation Vehicle: IV&IP: 10% DMSO/30% PEG400/60% Saline. Dose Level: IV (5 mg/kg) and IP (30 mg/kg). Dose Volume: IV (5 mL/kg) and IP (10 mL/kg). Formulation concentrations: IV (1 mg/mL) and IP (3 mg/mL). LLOQ: IV (2 ng/mL) and IP (10 ng/mL).

[1] = C57, mouse, plasma, intraperitoneal, 30 mg/kg, 30 mg/kg IP, mean, read-out: Plasma concentrations
[2] = C57, mouse, plasma, intraperitoneal, 30 mg/kg, 30 mg/kg IP, individual animals 201M-203M, read-out: Plasma concentrations
[3] = C57, mouse, plasma, intravenous, 5 mg/kg, 5 mg/kg IV, individual animals 101M-103M, read-out: Plasma concentrations
[4] = C57, mouse, plasma, intravenous, 5 mg/kg, 5 mg/kg IV, mean, read-out: Plasma concentrations
[5] = C57, mouse, plasma, ip, 30 mg/kg, 30 mg/kg IP, individual animals 201M-203M
[6] = C57, mouse, plasma, ip, 30 mg/kg, 30 mg/kg IP, mean
[7] = C57, mouse, plasma, iv, 5 mg/kg, 5 mg/kg IV, individual animals 101M-103M
[8] = C57, mouse, plasma, iv, 5 mg/kg, 5 mg/kg IV, mean

Molecule `Cc1ccc(Nc2nc(N/N=C/c3c[nH]c4ccccc34)cc(N3CCOCC3)n2)cc1` [Example 3, (E)-4-(2-((1H-indol-3-yl)methylene)hydrazinyl)-6-morpholino-N-(p-tolyl)pyrimidin-2-amine] has a concentration at 2 h [1] of 3210 ng/mL, a concentration at 4 h [2] of 1600 ng/mL and a concentration at 4 h [1] of 1890 ng/mL. For the same molecule, the concentration at 8 h [2] was 998 ng/mL, the concentration at 8 h [1] was 1220 ng/mL and the concentration at 24 h [2] was 107 ng/mL. The concentration at 24 h [1] was 146 ng/mL, the concentration at 0.08 h (C57, mouse, plasma, intravenous, 5 mg/kg, 5 mg/kg IV, 0.08 h, mean, read-out: Plasma concentrations) was 6900 ng/mL and the concentration at 0.25 h (C57, mouse, plasma, intravenous, 5 mg/kg, 5 mg/kg IV, 0.25 h, mean, read-out: Plasma concentrations) was 4530 ng/mL. The concentration at 0.5 h [3] was 2080 ng/mL, the concentration at 0.5 h [4] was 2180 ng/mL and the concentration at 1 h [3] was 1350 ng/mL. The concentration at 1 h [4] was 1220 ng/mL, the concentration at 2 h [3] was 309 ng/mL and the concentration at 2 h [4] was 338 ng/mL. For the same molecule, the concentration at 4 h [3] was 59 ng/mL, the concentration at 4 h [4] was 70.1 ng/mL and the concentration at 8 h [3] was 26.5 ng/mL. It also gave a concentration at 8 h [4] of 33.2 ng/mL, an AUC(0-t) [5] of 21900 ng·h/mL and an MRT last [5] of 4.9 h. The AUC(0-inf) [5] was 22700 ng·h/mL, the Cmax [5] was 2990 ng/mL and the half-life (C57, mouse, plasma, ip, 30 mg/kg, 30 mg/kg IP, individual animals 201M-203M, read-out: HL_Lambda_z (T1/2, h) (converted)) was 5.29 h. It also gave a Tmax [5] of 1 h, an AUC(0-t) [6] of 25400 ng·h/mL and an MRT last [6] of 5.17 h. For the same molecule, the bioavailability [6] was 92.7%, the AUC(0-inf) [6] was 26600 ng·h/mL and the Cmax [6] was 3270 ng/mL. It also gave a half-life (C57, mouse, plasma, ip, 30 mg/kg, 30 mg/kg IP, mean, read-out: HL_Lambda_z (T1/2, h) (converted)) of 5.55 h, a Tmax [6] of 1.33 h and a half-life (C57, mouse, plasma, ip, 30 mg/kg, IP injection, single 30 mg/kg dose, read-out: half life (converted)) of ~5.5 h. For the same molecule, the AUC(0-t) [7] was 5480 ng·h/mL, the MRT last [7] was 0.63 h and the AUC(0-inf) [7] was 5500 ng·h/mL. It also gave a half-life (C57, mouse, plasma, iv, 5 mg/kg, 5 mg/kg IV, individual animals 101M-103M, read-out: HL_Lambda_z (T1/2, h) (converted)) of 0.85 h, an AUC(0-t) [8] of 4580 ng·h/mL and an MRT last [8] of 0.76 h. It also gave an AUC(0-inf) [8] of 4610 ng·h/mL, a Cmax [8] of 6900 ng/mL and a half-life (C57, mouse, plasma, iv, 5 mg/kg, 5 mg/kg IV, mean, read-out: HL_Lambda_z (T1/2, h) (converted)) of 0.89 h. For the same molecule, the peak concentration (IP injection, single 30 mg/kg dose) was 3268 ng/mL.
